# Test results as given in patent US20260028365A1 (BIOGEN MA INC., priority 2022, published 2026).
# Read-outs that look alike come from different tables or passages of the source.
# Tests used:
# [1] = molecular target: JH2 domain of human Tyk2 (Homo sapiens (Human), UniProt P29597); test: JH2 Biochemical Assay (TR-FRET probe displacement); assay type: binding
# [2] = molecular target: Tyk2 (Homo sapiens (Human), UniProt P29597); test: pSTAT4 Cell Assay (MSD, NK92 cells); assay type: cell-based
# Tyk2, sequence (P29597 whole entry, the tested form may be a part): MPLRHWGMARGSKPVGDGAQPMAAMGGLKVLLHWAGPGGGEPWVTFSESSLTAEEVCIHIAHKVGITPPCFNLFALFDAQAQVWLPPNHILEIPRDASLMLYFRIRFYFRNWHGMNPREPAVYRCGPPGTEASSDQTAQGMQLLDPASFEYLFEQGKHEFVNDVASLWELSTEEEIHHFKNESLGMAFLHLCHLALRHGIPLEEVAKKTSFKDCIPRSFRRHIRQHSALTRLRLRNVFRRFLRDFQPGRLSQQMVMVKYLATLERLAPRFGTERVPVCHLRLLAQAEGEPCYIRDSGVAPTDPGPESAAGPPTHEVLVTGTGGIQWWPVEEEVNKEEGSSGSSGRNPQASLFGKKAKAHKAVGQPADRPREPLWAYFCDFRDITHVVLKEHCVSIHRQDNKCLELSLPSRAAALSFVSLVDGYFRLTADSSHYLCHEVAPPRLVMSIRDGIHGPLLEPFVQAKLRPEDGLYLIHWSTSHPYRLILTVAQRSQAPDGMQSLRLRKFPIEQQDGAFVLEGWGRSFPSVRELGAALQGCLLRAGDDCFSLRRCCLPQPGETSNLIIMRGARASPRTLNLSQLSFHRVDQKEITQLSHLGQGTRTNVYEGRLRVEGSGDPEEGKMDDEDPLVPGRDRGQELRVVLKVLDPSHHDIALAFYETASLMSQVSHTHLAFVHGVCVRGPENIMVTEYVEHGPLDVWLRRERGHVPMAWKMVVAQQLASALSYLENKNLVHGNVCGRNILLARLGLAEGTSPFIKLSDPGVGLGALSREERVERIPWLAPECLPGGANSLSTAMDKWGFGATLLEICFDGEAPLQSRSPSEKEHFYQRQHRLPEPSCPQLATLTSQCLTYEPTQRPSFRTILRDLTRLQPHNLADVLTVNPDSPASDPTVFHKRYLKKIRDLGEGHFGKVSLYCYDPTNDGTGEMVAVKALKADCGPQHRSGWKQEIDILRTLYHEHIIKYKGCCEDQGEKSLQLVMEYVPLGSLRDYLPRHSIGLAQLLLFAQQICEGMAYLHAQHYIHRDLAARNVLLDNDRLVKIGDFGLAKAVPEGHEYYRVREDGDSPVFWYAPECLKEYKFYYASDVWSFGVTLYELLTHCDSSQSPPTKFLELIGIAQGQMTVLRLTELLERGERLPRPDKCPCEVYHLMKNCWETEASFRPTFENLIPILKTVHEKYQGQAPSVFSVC
# [3] = JH2 domain of human Tyk2, TR-FRET probe displacement
# [4] = TR-FRET probe displacement, JH2 domain
# JH2 domain of human Tyk2, sequence (P29597 575-876): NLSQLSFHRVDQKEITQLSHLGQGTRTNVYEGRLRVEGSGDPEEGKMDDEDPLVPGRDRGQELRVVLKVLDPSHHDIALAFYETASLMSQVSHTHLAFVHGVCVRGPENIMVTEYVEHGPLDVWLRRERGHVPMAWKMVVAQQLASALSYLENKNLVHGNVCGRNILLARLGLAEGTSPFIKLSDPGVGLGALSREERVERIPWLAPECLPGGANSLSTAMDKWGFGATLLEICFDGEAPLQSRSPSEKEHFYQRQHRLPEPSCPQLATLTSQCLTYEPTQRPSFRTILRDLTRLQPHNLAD
SMILES,"IC50 [1, 3] [µM]",IC50 ([2]; MSD) [µM],"IC50 [1, 4] [µM]",IC50 [2] [µM]
"CC(=O)Nc1cc(Nc2ccnc(C(C)(F)F)n2)c(-c2nc(C)ns2)cn1 [Example 716, N-(4-((2-(1,1-difluoroethyl)pyrimidin-4-yl)amino)-5-(3-methyl-1,2,4-thiadiazol-5-yl)pyridin-2-yl)acetamide]",≤ 0.01,0.01 to 0.1,–,–
"CC(=O)Nc1cc(Nc2ccnc(C(C)(F)F)n2)c(-c2ccc3c(n2)CCC3=O)cn1 [Example 718, N-(4-((2-(1,1-difluoroethyl)pyrimidin-4-yl)amino)-5-(5-oxO6,7-dihydrO5H-cyclopenta[b]pyridin-2-yl)pyridin-2-yl)acetamide]",≤ 0.01,0.01 to 0.1,–,–
"CCc1cc(Nc2cc(NC(C)=O)ncc2-c2ccnc(COC)n2)nc(C(C)(F)F)n1 [Example 720, N-(4-((2-(1,1-difluoroethyl)-6-ethylpyrimidin-4-yl)amino)-5-(2-(methoxymethyl)pyrimidin-4-yl)pyridin-2-yl)acetamide]",≤ 0.01,≤ 0.01,–,–
"CC(=O)Nc1cc(Nc2cncc(C(C)(C)F)c2)c(-c2ccc(C(C)(C)O)cn2)cn1 [Example 722, N-(4′-((5-(2-fluoropropan-2-yl)pyridin-3-yl)amino)-5-(2-hydroxypropan-2-yl)-[2,3′-bipyridin]-6′-yl)acetamide]",≤ 0.01,≤ 0.01,–,–
"CC(=O)Nc1cc(Nc2cc(C)nc(C(C)(C)F)n2)c(-c2ncc(F)cn2)cn1 [Example 723, N-(4-((2-(2-fluoropropan-2-yl)-6-methylpyrimidin-4-yl)amino)-5-(5-fluoropyrimidin-2-yl)pyridin-2-yl)acetamide]",≤ 0.01,0.01 to 0.1,–,–
"CC(=O)Nc1cc(Nc2ccnc(C(C)(F)F)n2)c(-n2cc(C)cn2)cn1 [Example 728, N-(4-((2-(1,1-difluoroethyl)pyrimidin-4-yl)amino)-5-(4-methyl-1H-pyrazol-1-yl)pyridin-2-yl)acetamide]",≤ 0.01,0.01 to 0.1,–,–
"CC(=O)Nc1cc(Nc2cc(C)nc(C(C)(F)F)n2)c(-n2cc(C)cn2)cn1 [Example 729, N-(4-((2-(1,1-difluoroethyl)-6-methylpyrimidin-4-yl)amino)-5-(4-methyl-1H-pyrazol-1-yl)pyridin-2-yl)acetamide]",≤ 0.01,≤ 0.01,–,–
"COc1cnn(-c2cnc(NC(C)=O)cc2Nc2ccnc(C(C)(F)F)n2)c1 [Example 730, N-(4-((2-(1,1-difluoroethyl)pyrimidin-4-yl)amino)-5-(4-methoxy-1H-pyrazol-1-yl)pyridin-2-yl)acetamide]",0.01 to 0.1,0.1 to 1,–,–
"COc1cnn(-c2cnc(NC(C)=O)cc2Nc2cc(C)nc(C(C)(F)F)n2)c1 [Example 731, N-(4-((2-(1,1-difluoroethyl)-6-methylpyrimidin-4-yl)amino)-5-(4-methoxy-1H-pyrazol-1-yl)pyridin-2-yl)acetamide]",≤ 0.01,0.01 to 0.1,–,–
"CC(=O)Nc1cc(Nc2cc(C)nc(C(C)(F)F)n2)c(-n2cc(C#N)cn2)cn1 [Example 733, N-(5-(4-cyanO1H-pyrazol-1-yl)-4-((2-(1,1-difluoroethyl)-6-methylpyrimidin-4-yl)amino)pyridin-2-yl)acetamide]",≤ 0.01,0.1 to 1,–,–
"CC(=O)Nc1cc(Nc2ccnc(C(C)(F)F)n2)c(-c2cc3n(n2)CCN(CC#N)C3)cn1 [Example 736, N-(5-(5-(cyanomethyl)-4,5,6,7-tetrahydropyrazolo[1,5-a]pyrazin-2-yl)-4-((2-(1,1-difluoroethyl)pyrimidin-4-yl)amino)pyridin-2-yl)acetamide]",≤ 0.01,≤ 0.01,–,–
"CC(=O)Nc1cc(Nc2cc(C)nc(C(C)(F)F)n2)c(-c2ncc(CN(C)C)s2)cn1 [Example 737, N-(4-((2-(1,1-difluoroethyl)-6-methylpyrimidin-4-yl)amino)-5-(5-((dimethylamino)methyl)thiazol-2-yl)pyridin-2-yl)acetamide]",≤ 0.01,≤ 0.01,–,–
"CC(=O)Nc1cc(Nc2cc(C)nc(C(C)(F)F)n2)c(-c2ncc(CN3CCCC3)s2)cn1 [Example 738, N-(4-((2-(1,1-difluoroethyl)-6-methylpyrimidin-4-yl)amino)-5-(5-(pyrrolidin-1-ylmethyl)thiazol-2-yl)pyridin-2-yl)acetamide]",≤ 0.01,≤ 0.01,–,–
"CC(=O)Nc1cc(Nc2cc(C)nc(C(C)(F)F)n2)c(-c2cc(CN(C)C)ccn2)cn1 [Example 740, N-(4′-((2-(1,1-difluoroethyl)-6-methylpyrimidin-4-yl)amino)-4-((dimethylamino)methyl)-[2,3′-bipyridin]-6′-yl)acetamide]",≤ 0.01,≤ 0.01,–,–
"CC(=O)Nc1cc(Nc2cc(C)nc(C(C)(F)F)n2)c(-c2cnc(C(C)N(C)C)cn2)cn1 (stereo not drawn) [Example 741, N-(4-((2-(1,1-difluoroethyl)-6-methylpyrimidin-4-yl)amino)-5-(5-(1-(dimethylamino)ethyl)pyrazin-2-yl)pyridin-2-yl)acetamide]",≤ 0.01,≤ 0.01,–,–
"CC(=O)Nc1cc(Nc2cc(C)nc(C(C)(F)F)n2)c(-c2cc(C(C)N(C)C)ccn2)cn1 (stereo not drawn) [Example 743, N-(4′-((2-(1,1-difluoroethyl)-6-methylpyrimidin-4-yl)amino)-4-(1-(dimethylamino)ethyl)-[2,3′-bipyridin]-6′-yl)acetamide]",≤ 0.01,0.01 to 0.1,–,–
"COCCc1cc(-c2cnc(NC(C)=O)cc2Nc2cc(C)nc(C(C)(F)F)n2)ncn1 [Example 745, N-(4-((2-(1,1-difluoroethyl)-6-methylpyrimidin-4-yl)amino)-5-(6-(2-methoxyethyl)pyrimidin-4-yl)pyridin-2-yl)acetamide]",≤ 0.01,0.01 to 0.1,–,–
"COc1ccc(-c2cnc(NC(C)=O)cc2Nc2cc(C)nc(C34COC(C3)C4)n2)nn1 [Example 749, N-(4-((2-(2-oxabicyclo[2.1.1]hexan-4-yl)-6-methylpyrimidin-4-yl)amino)-5-(6-methoxypyridazin-3-yl)pyridin-2-yl)acetamide]",–,–,≤ 0.01,0.01 to 0.1
"COc1cc(-c2cnc(NC(C)=O)cc2Nc2cc(C)nc(C34COC(C3)C4)n2)ncn1 [Example 750, N-(4-((2-(2-oxabicyclo[2.1.1]hexan-4-yl)-6-methylpyrimidin-4-yl)amino)-5-(6-methoxypyrimidin-4-yl)pyridin-2-yl)acetamide]",–,–,≤ 0.01,0.1 to 1
"COc1cnnc(-c2cnc(NC(C)=O)cc2Nc2cc(C)nc(C(C)(F)F)n2)c1 [Example 753, N-(4-((2-(1,1-difluoroethyl)-6-methylpyrimidin-4-yl)amino)-5-(5-methoxypyridazin-3-yl)pyridin-2-yl)acetamide]",–,–,≤ 0.01,≥ 1
"COC(C)(C)c1cc(-c2cnc(NC(C)=O)cc2Nc2cc(C)nc(C(C)(F)F)n2)nn1C [Example 758, N-(4-((2-(1,1-difluoroethyl)-6-methylpyrimidin-4-yl)amino)-5-(5-(2-methoxypropan-2-yl)-1-methyl-1H-pyrazol-3-yl)pyridin-2-yl)acetamide]",–,–,≤ 0.01,≤ 0.01
"CC(=O)Nc1cc(Nc2cc(C)nc(C(C)(F)F)n2)c(-c2nc3n(n2)CCN(C)C3)cn1 [Example 759, N-(4-((2-(1,1-difluoroethyl)-6-methylpyrimidin-4-yl)amino)-5-(7-methyl-5,6,7,8-tetrahydro[1,2,4]triazolo[1,5-a]pyrazin-2-yl)pyridin-2-yl)acetamide]",–,–,≤ 0.01,0.01 to 0.1
"CC(=O)Nc1cc(Nc2cc(C)nc(C(C)(F)F)n2)c(-c2nc3n(n2)CCOC3)cn1 [Example 760, N-(4-((2-(1,1-difluoroethyl)-6-methylpyrimidin-4-yl)amino)-5-(5,6-dihydrO8H-[1,2,4]triazolo[5,1-c][1,4]oxazin-2-yl)pyridin-2-yl)acetamide]",–,–,≤ 0.01,0.01 to 0.1
"CC(=O)Nc1cc(Nc2cc(C)nc(C(C)(F)F)n2)c(-c2ccsn2)cn1 [Example 761, N-(4-((2-(1,1-difluoroethyl)-6-methylpyrimidin-4-yl)amino)-5-(isothiazol-3-yl)pyridin-2-yl)acetamide]",–,–,≤ 0.01,≥ 1
"COCc1nsc(-c2cnc(NC(C)=O)cc2Nc2cc(C)nc(C(C)(F)F)n2)n1 [Example 762, N-(4-((2-(1,1-difluoroethyl)-6-methylpyrimidin-4-yl)amino)-5-(3-(methoxymethyl)-1,2,4-thiadiazol-5-yl)pyridin-2-yl)acetamide]",–,–,≤ 0.01,≤ 0.01
"CC(=O)Nc1cc(Nc2cc(C)nc(C(C)(F)F)n2)c(-c2nsc(N(C)C)n2)cn1 [Example 763, N-(4-((2-(1,1-difluoroethyl)-6-methylpyrimidin-4-yl)amino)-5-(5-(dimethylamino)-1,2,4-thiadiazol-3-yl)pyridin-2-yl)acetamide]",–,–,≤ 0.01,0.1 to 1
"COCCc1cnn(-c2cnc(NC(C)=O)cc2Nc2cc(C)nc(C(C)(F)F)n2)c1 [Example 764, N-(4-((2-(1,1-difluoroethyl)-6-methylpyrimidin-4-yl)amino)-5-(4-(2-methoxyethyl)-1H-pyrazol-1-yl)pyridin-2-yl)acetamide]",–,–,≤ 0.01,0.01 to 0.1
"COCc1cnn(-c2cnc(NC(C)=O)cc2Nc2cc(C)nc(C(C)(F)F)n2)c1 [Example 765, N-(4-((2-(1,1-difluoroethyl)-6-methylpyrimidin-4-yl)amino)-5-(4-(methoxymethyl)-1H-pyrazol-1-yl)pyridin-2-yl)acetamide]",–,–,≤ 0.01,0.01 to 0.1
"CC(=O)Nc1cc(Nc2ccnc(C(C)(F)F)n2)c(-c2cncc(C#N)n2)cn1 [Example 766, N-(5-(6-cyanopyrazin-2-yl)-4-((2-(1,1-difluoroethyl)pyrimidin-4-yl)amino)pyridin-2-yl)acetamide]",–,–,≤ 0.01,0.1 to 1
"CC(=O)Nc1cc(Nc2ccnc(C(C)(F)F)n2)c(-c2cc(OC(F)F)ncn2)cn1 [Example 767, N-(4-((2-(1,1-difluoroethyl)pyrimidin-4-yl)amino)-5-(6-(difluoromethoxy)pyrimidin-4-yl)pyridin-2-yl)acetamide]",–,–,≤ 0.01,0.01 to 0.1
